PubChem BioAssay AID256 (DTP/NCI, 2004)
Values joined by “and” are separate entries in the source; they are usually repeats but may differ in a detail not shown here. Equal entries are not always repeated. Toxic doses and inconclusive results are not listed.

System: CD2F1 mice, L1210 leukemia ip, survival T/C
Test: NCI In Vivo Anticancer Drug Screen. Data for tumor model L1210 Leukemia (intraperitoneal) in CD2F1 (CDF1) mice
Conditions: higher = longer survival
In short: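 Each value reflects a quotient of treated over vehicle control outcomes in mice with a transplanted tumor.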

[1] = endpoint: mean survival time, dose: 200.0 mg/kg/injection, schedule: Q04DX003 (ip), vehicle: saline with Tween-80
[2] = endpoint: mean survival time, dose: 200.0 mg/kg/injection, schedule: Q04DX002 (ip), vehicle: saline with Tween-80
[3] = endpoint: mean survival time, dose: 100.0 mg/kg/injection, schedule: Q04DX002 (ip), vehicle: saline with Tween-80
[4] = endpoint: mean survival time, dose: 400.0 mg/kg/injection, schedule: Q04DX002 (ip), vehicle: saline with Tween-80
[5] = endpoint: mean survival time, dose: 75.0 mg/kg/injection, schedule: Q01DX001 (ip), vehicle: other
[6] = endpoint: mean survival time, dose: 150.0 mg/kg/injection, schedule: Q01DX001 (ip), vehicle: other

With `[Co].[O-][Cl+3]([O-])([O-])O.c1ccc([PH+](CC[PH+](c2ccccc2)c2ccccc2)c2ccccc2)cc1.c1ccc([PH+](CC[PH+](c2ccccc2)c2ccccc2)c2ccccc2)cc1` the T/C (endpoint: mean survival time, dose: 6.25 mg/kg/injection, schedule: Q04DX003 (ip), vehicle: saline with Tween-80) was 94 % of control, the T/C (endpoint: mean survival time, dose: 12.5 mg/kg/injection, schedule: Q04DX003 (ip), vehicle: saline with Tween-80) was 98 % of control and the T/C (endpoint: mean survival time, dose: 25.0 mg/kg/injection, schedule: Q04DX003 (ip), vehicle: saline with Tween-80) was 110 % of control. For the same compound, the T/C [1] was 91 % of control.

In the case of `CCCCC(/C=N/N=C/C(CC)CCCC)CC` (stereo unspecified), the T/C (endpoint: mean survival time, dose: 6.25 mg/kg/injection, schedule: Q01DX005 (ip), vehicle: saline with Tween-80) is reported as 92 % of control, the T/C (endpoint: mean survival time, dose: 6.25 mg/kg/injection, schedule: Q01DX009 (ip), vehicle: saline with Tween-80) is reported as 91 % of control and the T/C (endpoint: mean survival time, dose: 6.25 mg/kg/injection, schedule: Q04DX002 (ip), vehicle: saline) is reported as 98 % of control. The T/C (endpoint: mean survival time, dose: 12.5 mg/kg/injection, schedule: Q01DX005 (ip), vehicle: saline with Tween-80) was 92 % of control, the T/C (endpoint: mean survival time, dose: 12.5 mg/kg/injection, schedule: Q01DX009 (ip), vehicle: saline with Tween-80) was 91 % of control and the T/C (endpoint: mean survival time, dose: 12.5 mg/kg/injection, schedule: Q04DX002 (ip), vehicle: saline) was 103 % of control. The T/C (endpoint: mean survival time, dose: 25.0 mg/kg/injection, schedule: Q01DX005 (ip), vehicle: saline with Tween-80) was 89 % of control, the T/C (endpoint: mean survival time, dose: 25.0 mg/kg/injection, schedule: Q01DX009 (ip), vehicle: saline with Tween-80) was 95 % of control and the T/C (endpoint: mean survival time, dose: 25.0 mg/kg/injection, schedule: Q04DX002 (ip), vehicle: saline) was 103 % of control. The T/C (endpoint: mean survival time, dose: 50.0 mg/kg/injection, schedule: Q01DX005 (ip), vehicle: saline with Tween-80) was 92 % of control, the T/C (endpoint: mean survival time, dose: 50.0 mg/kg/injection, schedule: Q01DX009 (ip), vehicle: saline with Tween-80) was 91 % of control and the T/C (endpoint: mean survival time, dose: 50.0 mg/kg/injection, schedule: Q04DX002 (ip), vehicle: saline with Tween-80) was 95 % of control. The T/C (endpoint: mean survival time, dose: 50.0 mg/kg/injection, schedule: Q04DX002 (ip), vehicle: saline) was 106 % of control and the T/C [2] was 88 % of control.

`CC(C(=O)O)C1CCC2(C)CCC(=O)C(C)(Cl)C2(O)C1=O` (stereo unspecified) was tested, and the T/C [3] was 96 % of control, the T/C [2] was 100 % of control and the T/C [4] was 100 % of control.

With `COc1ccc(-c2c(C(=O)NCCc3ccccc3)[nH]c(-c3ccccc3)c2-c2ccccc2)cc1` the T/C (endpoint: mean survival time, dose: 75.0 mg/kg/injection, schedule: Q01DX001 (ip), vehicle: saline) was 95 % of control and the T/C (endpoint: mean survival time, dose: 150.0 mg/kg/injection, schedule: Q01DX001 (ip), vehicle: saline) was 98 % of control.

`FC(F)(F)c1[nH]nc(-c2ccc(Cl)cc2)c1N=NN1CCOCC1` was tested, and the T/C [5] was 91 % of control and the T/C [6] was 95 % of control.

With `O=C1Cc2c([nH]c(=S)[nH]c2=O)N1` the T/C (endpoint: median survival time, dose: 50.0 mg/kg/injection, schedule: Q01DX005 (ip), vehicle: saline) was 94 % of control, the T/C (endpoint: median survival time, dose: 100.0 mg/kg/injection, schedule: Q01DX005 (ip), vehicle: saline) was 102 % of control and the T/C (endpoint: median survival time, dose: 200.0 mg/kg/injection, schedule: Q01DX005 (ip), vehicle: saline) was 101 % of control.

`CC1C(=O)OC2C1CCC1(C)C3OC3C(=O)C3(C)OC231` (stereo unspecified) was tested, and the T/C [3] was 96 % of control.

In the case of `COC(=O)c1cc2ccccc2[nH]c1=O`, the T/C [5] is reported as 97 % of control, the T/C [6] is reported as 96 % of control and the T/C (endpoint: mean survival time, dose: 300.0 mg/kg/injection, schedule: Q01DX001 (ip), vehicle: other) is reported as 97 % of control.

`CN(C)CCC(=O)C(=Cc1ccc(O)cc1)C(=O)CCN(C)C` was tested, and the T/C (endpoint: median survival time, dose: 12.5 mg/kg/injection, schedule: Q01DX009 (ip), vehicle: saline) was 104 % of control, the T/C (endpoint: median survival time, dose: 25.0 mg/kg/injection, schedule: Q01DX009 (ip), vehicle: saline) was 101 % of control and the T/C (endpoint: median survival time, dose: 50.0 mg/kg/injection, schedule: Q01DX009 (ip), vehicle: saline) was 100 % of control. For the same compound, the T/C (endpoint: median survival time, dose: 100.0 mg/kg/injection, schedule: Q01DX009 (ip), vehicle: saline) was 97 % of control and the T/C (endpoint: median survival time, dose: 200.0 mg/kg/injection, schedule: Q01DX009 (ip), vehicle: saline) was 97 % of control.

In the case of `CC(C)c1ccc2c(c1)CCC(C(Cl)Cl)C2(C)C` (stereo unspecified), the T/C [3] is reported as 95 % of control, the T/C [2] is reported as 111 % of control and the T/C [4] is reported as 100 % of control.

In the case of `CN(N)c1nc2c(=O)[nH]cnc2n1C1OC(CO)C(O)C1O` (stereo unspecified), the T/C (endpoint: mean survival time, dose: 12.5 mg/kg/injection, schedule: Q01DX005 (ip), vehicle: water) is reported as 104 % of control, the T/C (endpoint: mean survival time, dose: 25.0 mg/kg/injection, schedule: Q01DX005 (ip), vehicle: water) is reported as 101 % of control and the T/C (endpoint: mean survival time, dose: 50.0 mg/kg/injection, schedule: Q01DX005 (ip), vehicle: water) is reported as 95 % of control. For the same compound, the T/C (endpoint: mean survival time, dose: 100.0 mg/kg/injection, schedule: Q01DX005 (ip), vehicle: water) was 103 % of control and the T/C (endpoint: mean survival time, dose: 200.0 mg/kg/injection, schedule: Q01DX005 (ip), vehicle: water) was 95 % of control.

In the case of `COc1cc(CC#N)ccc1OCc1ccccc1`, the T/C (endpoint: mean survival time, dose: 12.5 mg/kg/injection, schedule: Q01DX009 (ip), vehicle: other) is reported as 102 % of control, the T/C (endpoint: mean survival time, dose: 25.0 mg/kg/injection, schedule: Q01DX009 (ip), vehicle: other) is reported as 101 % of control and the T/C (endpoint: mean survival time, dose: 25.0 mg/kg/injection, schedule: Q04DX003 (ip), vehicle: other) is reported as 102 % of control. The T/C (endpoint: mean survival time, dose: 50.0 mg/kg/injection, schedule: Q01DX009 (ip), vehicle: other) was 100 % of control, the T/C (endpoint: mean survival time, dose: 50.0 mg/kg/injection, schedule: Q04DX003 (ip), vehicle: other) was 96 % of control and the T/C (endpoint: mean survival time, dose: 100.0 mg/kg/injection, schedule: Q04DX003 (ip), vehicle: other) was 103 % of control.

With `CC(C)(C)SC(=O)C1(C)OC1c1ccc([N+](=O)[O-])cc1` (stereo unspecified) the T/C (endpoint: mean survival time, dose: 100.0 mg/kg/injection, schedule: Q01DX001 (ip), vehicle: Klucel (hydroxypropylcellulose) (HPC)) was 97 % of control, the T/C (endpoint: mean survival time, dose: 200.0 mg/kg/injection, schedule: Q01DX001 (ip), vehicle: Klucel (hydroxypropylcellulose) (HPC)) was 94 % of control and the T/C (endpoint: mean survival time, dose: 400.0 mg/kg/injection, schedule: Q01DX001 (ip), vehicle: Klucel (hydroxypropylcellulose) (HPC)) was 97 % of control.

`NC(N)=NCc1ccccc1` was tested, and the T/C (endpoint: mean survival time, dose: 10.0 mg/kg/injection, schedule: Q04DX003 (ip), vehicle: saline) was 106 % of control, the T/C (endpoint: mean survival time, dose: 12.5 mg/kg/injection, schedule: Q04DX003 (ip), vehicle: saline) was 100 % of control and the T/C (endpoint: mean survival time, dose: 20.0 mg/kg/injection, schedule: Q04DX003 (ip), vehicle: saline) was 103 % of control. The T/C (endpoint: mean survival time, dose: 25.0 mg/kg/injection, schedule: Q04DX003 (ip), vehicle: saline) was 96 % of control, the T/C (endpoint: mean survival time, dose: 40.0 mg/kg/injection, schedule: Q04DX003 (ip), vehicle: saline) was 100 % of control and the T/C (endpoint: mean survival time, dose: 50.0 mg/kg/injection, schedule: Q04DX003 (ip), vehicle: saline) was 97 % of control and 100 % of control.

For `Cc1cc2c(cc1C)N(C(=O)CN1CCCCC1)CC(=O)N2`, the T/C (endpoint: mean survival time, dose: 75.0 mg/kg/injection, schedule: Q04DX003 (ip), vehicle: saline) was 94 % of control and the T/C (endpoint: mean survival time, dose: 150.0 mg/kg/injection, schedule: Q04DX003 (ip), vehicle: saline) was 89 % of control.

For `Cc1c(F)cccc1NC(=O)OC(C)C`, the T/C [3] was 97 % of control, the T/C [2] was 102 % of control and the T/C [4] was 94 % of control.

With `C#CCOCCBr` the T/C (endpoint: mean survival time, dose: 50.0 mg/kg/injection, schedule: Q01DX009 (ip), vehicle: acetone) was 94 % of control, the T/C (endpoint: mean survival time, dose: 100.0 mg/kg/injection, schedule: Q01DX009 (ip), vehicle: acetone) was 100 % of control and the T/C (endpoint: mean survival time, dose: 200.0 mg/kg/injection, schedule: Q01DX009 (ip), vehicle: acetone) was 103 % of control.

For `O=C1SC(c2ccccc2)=S=C1c1ccccc1`, the T/C (endpoint: median survival time, dose: 25.0 mg/kg/injection, schedule: Q01DX009 (ip), vehicle: saline with Tween-80) was 100 % of control, the T/C (endpoint: median survival time, dose: 50.0 mg/kg/injection, schedule: Q01DX009 (ip), vehicle: saline with Tween-80) was 105 % of control and the T/C (endpoint: median survival time, dose: 100.0 mg/kg/injection, schedule: Q01DX009 (ip), vehicle: saline with Tween-80) was 103 % of control. For the same compound, the T/C (endpoint: median survival time, dose: 200.0 mg/kg/injection, schedule: Q01DX009 (ip), vehicle: saline with Tween-80) was 97 % of control and the T/C (endpoint: median survival time, dose: 400.0 mg/kg/injection, schedule: Q01DX009 (ip), vehicle: saline with Tween-80) was 101 % of control.

For `COC(=O)C1=CCN(C)CC1`, the T/C (endpoint: mean survival time, dose: 100.0 mg/kg/injection, schedule: Q04DX003 (ip), vehicle: saline) was 97 % of control, the T/C (endpoint: mean survival time, dose: 200.0 mg/kg/injection, schedule: Q04DX003 (ip), vehicle: saline) was 96 % of control and the T/C (endpoint: mean survival time, dose: 400.0 mg/kg/injection, schedule: Q04DX003 (ip), vehicle: saline) was 90 % of control.

For `CN=C(NC)c1ccc(NC(=O)c2ccc(C(=O)Nc3ccc(C(=NC)NC)cc3)c(N)c2)cc1`, the T/C (endpoint: mean survival time, dose: 2.25 mg/kg/injection, schedule: Q01DX Z (ip), vehicle: water) was 176 % of control and the T/C (endpoint: mean survival time, dose: 4.5 mg/kg/injection, schedule: Q01DX Z (ip), vehicle: water) was 176 % of control.

For `OC(c1ccccc1)(c1ccccc1)c1ccccc1` (tested in a mixture with another compound), the T/C (endpoint: mean survival time, dose: 100.0 mg/kg/injection, schedule: Q04DX003 (ip), vehicle: saline with Tween-80) was 98 % of control, the T/C [1] was 91 % of control and the T/C (endpoint: mean survival time, dose: 400.0 mg/kg/injection, schedule: Q04DX003 (ip), vehicle: saline with Tween-80) was 97 % of control.
